Literature values in patent US9833455B2, “Preparation and methods of use for ortho-aryl 5-membered heteroaryl-carboxamide containing multi-targeted kinase inhibitors” (Spacefill Enterprises LLC, priority 2011, dated 2017).

Legend:
Conditions in all cases: 1 μM, duplicate, without preincubation; cited from earlier work
BRAF = biological target: T1, BRAF (Homo sapiens, UniProt P15056)
T1 construct: literature Ambit Biosciences

CDK11 = biological target: T2, CDK11 (Homo sapiens, UniProt Q9BWU1)
T2 construct: literature Ambit Biosciences

DCAMKL1 = biological target: T3, DCAMKL1 (Homo sapiens, UniProt O15075)
T3 construct: literature Ambit Biosciences
T3 sequence (O15075 1-740): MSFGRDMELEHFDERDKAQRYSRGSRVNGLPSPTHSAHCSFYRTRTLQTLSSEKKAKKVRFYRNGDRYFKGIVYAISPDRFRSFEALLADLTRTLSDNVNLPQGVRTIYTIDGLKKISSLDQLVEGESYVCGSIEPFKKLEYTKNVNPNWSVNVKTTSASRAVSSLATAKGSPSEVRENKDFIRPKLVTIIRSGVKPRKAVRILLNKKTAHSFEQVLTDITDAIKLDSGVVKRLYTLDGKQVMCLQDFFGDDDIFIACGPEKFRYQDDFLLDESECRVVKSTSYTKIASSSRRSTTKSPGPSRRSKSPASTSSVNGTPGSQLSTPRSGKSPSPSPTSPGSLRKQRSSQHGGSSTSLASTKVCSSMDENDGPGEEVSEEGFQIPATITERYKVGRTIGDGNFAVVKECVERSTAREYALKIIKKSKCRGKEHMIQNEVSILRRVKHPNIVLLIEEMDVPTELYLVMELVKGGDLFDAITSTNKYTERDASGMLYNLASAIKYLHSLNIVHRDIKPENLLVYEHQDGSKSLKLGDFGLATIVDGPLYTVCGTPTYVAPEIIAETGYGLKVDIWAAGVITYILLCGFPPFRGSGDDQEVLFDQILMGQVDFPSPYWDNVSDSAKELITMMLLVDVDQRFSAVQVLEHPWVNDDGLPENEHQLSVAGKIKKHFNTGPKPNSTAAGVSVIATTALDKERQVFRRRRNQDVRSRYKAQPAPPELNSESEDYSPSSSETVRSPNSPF

ERBB2 = biological target: T4, ERBB2 (Homo sapiens, UniProt P04626)
T4 construct: literature Ambit Biosciences

KIT = KIT (Homo sapiens, UniProt P10721)
MKNK1 = biological target: T5, MKNK1 (Homo sapiens, UniProt Q9BUB5)
T5 construct: literature Ambit Biosciences

p38-alpha = biological target: T6, p38-alpha (Homo sapiens, UniProt Q16539)
T6 construct: literature Ambit Biosciences

p38-beta = biological target: T7, p38-beta (Homo sapiens, UniProt Q15759)
T7 construct: literature Ambit Biosciences

PDGFRA = biological target: T8, PDGFRA (Homo sapiens, UniProt P16234)
T8 construct: literature Ambit Biosciences

PDGFRB = biological target: T9, PDGFRB (Homo sapiens, UniProt P09619)
T9 construct: literature Ambit Biosciences

PIK3CA = biological target: T10, PIK3CA (Homo sapiens, UniProt P42336)
T10 construct: literature Ambit Biosciences

PLK4 = biological target: T11, PLK4 (Homo sapiens, UniProt O00444)
T11 construct: literature Ambit Biosciences
T11 sequence (O00444 1-970): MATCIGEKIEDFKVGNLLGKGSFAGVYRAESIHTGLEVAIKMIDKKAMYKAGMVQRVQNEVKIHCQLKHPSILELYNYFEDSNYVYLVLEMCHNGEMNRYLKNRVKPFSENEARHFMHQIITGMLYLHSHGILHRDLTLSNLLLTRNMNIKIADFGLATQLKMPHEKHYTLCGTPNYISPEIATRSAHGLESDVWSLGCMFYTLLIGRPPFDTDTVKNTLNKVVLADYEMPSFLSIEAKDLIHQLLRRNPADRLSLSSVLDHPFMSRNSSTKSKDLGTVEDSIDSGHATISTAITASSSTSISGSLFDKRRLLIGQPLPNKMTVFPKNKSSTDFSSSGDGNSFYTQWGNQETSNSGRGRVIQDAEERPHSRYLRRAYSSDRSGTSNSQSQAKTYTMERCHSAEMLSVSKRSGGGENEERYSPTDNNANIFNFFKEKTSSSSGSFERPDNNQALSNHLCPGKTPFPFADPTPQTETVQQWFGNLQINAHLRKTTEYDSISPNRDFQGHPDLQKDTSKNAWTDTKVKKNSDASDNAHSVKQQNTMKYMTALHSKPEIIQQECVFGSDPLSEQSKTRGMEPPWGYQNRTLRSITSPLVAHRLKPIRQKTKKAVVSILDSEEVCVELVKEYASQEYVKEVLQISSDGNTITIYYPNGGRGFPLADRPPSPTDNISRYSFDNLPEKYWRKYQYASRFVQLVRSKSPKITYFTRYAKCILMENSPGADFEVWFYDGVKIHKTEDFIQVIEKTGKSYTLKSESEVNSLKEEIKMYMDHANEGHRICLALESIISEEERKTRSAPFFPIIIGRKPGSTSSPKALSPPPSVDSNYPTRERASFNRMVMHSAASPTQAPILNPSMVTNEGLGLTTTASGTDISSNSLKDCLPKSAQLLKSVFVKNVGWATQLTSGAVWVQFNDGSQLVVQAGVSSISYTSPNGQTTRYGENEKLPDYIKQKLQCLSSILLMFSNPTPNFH

RAF1 = biological target: T12, RAF1 (Homo sapiens, UniProt P04049)
T12 construct: literature Ambit Biosciences

RIOK2 = biological target: T13, RIOK2 (Homo sapiens, UniProt Q9BVS4)
T13 construct: literature Ambit Biosciences

TYK2 (catalytic) = biological target: T14, TYK2 (catalytic) (Homo sapiens, UniProt P29597)
T14 construct: catalytic; literature Ambit Biosciences
T14 sequence (P29597 897-1176 limits assumed): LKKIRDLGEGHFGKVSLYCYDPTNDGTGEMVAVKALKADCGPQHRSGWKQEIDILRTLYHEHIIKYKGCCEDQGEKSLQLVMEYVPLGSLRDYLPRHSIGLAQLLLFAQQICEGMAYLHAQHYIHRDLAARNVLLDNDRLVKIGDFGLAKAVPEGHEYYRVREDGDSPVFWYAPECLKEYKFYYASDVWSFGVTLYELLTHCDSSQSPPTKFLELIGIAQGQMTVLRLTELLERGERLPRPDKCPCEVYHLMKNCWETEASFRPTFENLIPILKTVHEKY

T2 sequence (Q9BWU1 whole entry): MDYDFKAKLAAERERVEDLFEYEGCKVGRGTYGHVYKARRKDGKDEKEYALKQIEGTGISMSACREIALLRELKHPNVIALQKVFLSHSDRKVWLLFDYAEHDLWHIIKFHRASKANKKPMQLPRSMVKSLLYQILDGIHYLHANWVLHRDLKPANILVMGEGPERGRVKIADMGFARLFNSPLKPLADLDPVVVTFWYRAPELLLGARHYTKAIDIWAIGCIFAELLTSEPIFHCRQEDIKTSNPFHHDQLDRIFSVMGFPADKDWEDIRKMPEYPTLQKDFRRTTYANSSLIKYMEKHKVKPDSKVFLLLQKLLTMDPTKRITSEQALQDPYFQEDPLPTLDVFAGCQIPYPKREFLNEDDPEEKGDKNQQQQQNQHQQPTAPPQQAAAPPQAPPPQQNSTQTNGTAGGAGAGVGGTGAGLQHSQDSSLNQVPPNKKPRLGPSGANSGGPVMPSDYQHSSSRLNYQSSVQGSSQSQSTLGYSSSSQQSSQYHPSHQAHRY
T13 sequence (Q9BVS4 whole entry): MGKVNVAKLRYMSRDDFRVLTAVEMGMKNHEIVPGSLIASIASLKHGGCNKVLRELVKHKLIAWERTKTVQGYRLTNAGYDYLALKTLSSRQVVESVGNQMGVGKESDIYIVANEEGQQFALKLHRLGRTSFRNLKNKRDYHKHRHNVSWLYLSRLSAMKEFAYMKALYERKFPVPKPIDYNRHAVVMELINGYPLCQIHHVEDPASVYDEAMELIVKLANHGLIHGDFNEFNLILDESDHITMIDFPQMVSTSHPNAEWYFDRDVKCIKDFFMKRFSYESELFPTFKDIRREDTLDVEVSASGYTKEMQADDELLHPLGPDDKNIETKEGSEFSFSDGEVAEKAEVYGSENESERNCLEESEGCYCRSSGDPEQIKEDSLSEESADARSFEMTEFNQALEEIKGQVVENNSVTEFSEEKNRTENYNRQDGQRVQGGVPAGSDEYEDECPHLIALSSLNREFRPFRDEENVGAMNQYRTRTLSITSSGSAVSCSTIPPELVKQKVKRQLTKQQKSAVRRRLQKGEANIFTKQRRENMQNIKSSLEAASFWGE
T6 sequence (Q16539 whole entry): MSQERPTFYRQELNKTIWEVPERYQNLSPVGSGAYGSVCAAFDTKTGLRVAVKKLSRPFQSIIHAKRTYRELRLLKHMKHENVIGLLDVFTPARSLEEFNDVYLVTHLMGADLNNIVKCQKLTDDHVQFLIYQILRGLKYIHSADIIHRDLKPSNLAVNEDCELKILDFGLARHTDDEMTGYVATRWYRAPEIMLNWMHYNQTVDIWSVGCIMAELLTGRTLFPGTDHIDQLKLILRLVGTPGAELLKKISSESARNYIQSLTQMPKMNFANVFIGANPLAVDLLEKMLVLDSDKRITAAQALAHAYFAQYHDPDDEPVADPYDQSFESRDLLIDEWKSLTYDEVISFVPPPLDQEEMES
T1 sequence (P15056 whole entry): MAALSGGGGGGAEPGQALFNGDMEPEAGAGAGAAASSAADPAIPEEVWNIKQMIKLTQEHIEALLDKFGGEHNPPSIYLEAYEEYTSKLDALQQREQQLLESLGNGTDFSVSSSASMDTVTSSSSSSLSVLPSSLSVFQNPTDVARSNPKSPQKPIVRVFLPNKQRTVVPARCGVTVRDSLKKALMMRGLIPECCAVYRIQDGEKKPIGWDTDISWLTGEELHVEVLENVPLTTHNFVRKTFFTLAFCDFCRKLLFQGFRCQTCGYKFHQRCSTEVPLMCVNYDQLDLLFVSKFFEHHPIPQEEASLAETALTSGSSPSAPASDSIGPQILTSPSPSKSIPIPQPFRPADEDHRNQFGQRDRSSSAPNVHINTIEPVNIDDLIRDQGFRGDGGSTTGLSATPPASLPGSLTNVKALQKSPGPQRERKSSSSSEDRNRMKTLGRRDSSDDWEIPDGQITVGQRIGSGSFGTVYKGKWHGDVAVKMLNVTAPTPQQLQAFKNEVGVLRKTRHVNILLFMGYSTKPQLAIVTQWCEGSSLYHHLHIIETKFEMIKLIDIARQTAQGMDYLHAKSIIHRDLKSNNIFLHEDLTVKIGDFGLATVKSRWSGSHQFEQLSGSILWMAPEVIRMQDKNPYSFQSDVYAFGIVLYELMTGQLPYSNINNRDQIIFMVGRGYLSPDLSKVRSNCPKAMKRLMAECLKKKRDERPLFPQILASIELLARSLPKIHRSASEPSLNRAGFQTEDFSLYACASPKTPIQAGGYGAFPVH
T7 sequence (Q15759 whole entry): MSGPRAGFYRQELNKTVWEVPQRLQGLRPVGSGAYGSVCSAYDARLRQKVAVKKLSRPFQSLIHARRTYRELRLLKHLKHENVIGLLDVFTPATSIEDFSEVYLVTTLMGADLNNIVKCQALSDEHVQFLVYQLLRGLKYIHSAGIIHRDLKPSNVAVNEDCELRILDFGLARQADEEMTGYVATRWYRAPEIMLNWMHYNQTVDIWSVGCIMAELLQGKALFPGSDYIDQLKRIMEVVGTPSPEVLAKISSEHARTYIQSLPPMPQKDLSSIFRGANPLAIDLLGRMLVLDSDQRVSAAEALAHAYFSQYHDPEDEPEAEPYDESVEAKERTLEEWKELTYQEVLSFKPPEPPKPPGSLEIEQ
T12 sequence (P04049 whole entry): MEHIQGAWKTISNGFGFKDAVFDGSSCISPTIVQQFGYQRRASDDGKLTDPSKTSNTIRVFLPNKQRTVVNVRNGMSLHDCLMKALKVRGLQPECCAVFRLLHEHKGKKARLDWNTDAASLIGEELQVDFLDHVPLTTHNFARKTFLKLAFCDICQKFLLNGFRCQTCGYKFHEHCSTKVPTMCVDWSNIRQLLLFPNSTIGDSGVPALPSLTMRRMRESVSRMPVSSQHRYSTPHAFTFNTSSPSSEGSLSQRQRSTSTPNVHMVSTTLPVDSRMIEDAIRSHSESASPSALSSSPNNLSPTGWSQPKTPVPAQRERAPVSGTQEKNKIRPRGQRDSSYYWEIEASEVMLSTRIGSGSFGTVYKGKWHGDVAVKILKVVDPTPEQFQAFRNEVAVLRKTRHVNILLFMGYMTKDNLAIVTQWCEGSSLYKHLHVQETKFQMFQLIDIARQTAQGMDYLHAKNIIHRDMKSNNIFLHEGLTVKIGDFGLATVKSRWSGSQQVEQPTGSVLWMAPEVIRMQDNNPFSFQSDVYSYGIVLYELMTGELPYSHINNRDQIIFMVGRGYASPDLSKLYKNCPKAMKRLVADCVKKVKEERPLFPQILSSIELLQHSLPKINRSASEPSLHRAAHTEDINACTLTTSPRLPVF
T10 sequence (P42336 whole entry): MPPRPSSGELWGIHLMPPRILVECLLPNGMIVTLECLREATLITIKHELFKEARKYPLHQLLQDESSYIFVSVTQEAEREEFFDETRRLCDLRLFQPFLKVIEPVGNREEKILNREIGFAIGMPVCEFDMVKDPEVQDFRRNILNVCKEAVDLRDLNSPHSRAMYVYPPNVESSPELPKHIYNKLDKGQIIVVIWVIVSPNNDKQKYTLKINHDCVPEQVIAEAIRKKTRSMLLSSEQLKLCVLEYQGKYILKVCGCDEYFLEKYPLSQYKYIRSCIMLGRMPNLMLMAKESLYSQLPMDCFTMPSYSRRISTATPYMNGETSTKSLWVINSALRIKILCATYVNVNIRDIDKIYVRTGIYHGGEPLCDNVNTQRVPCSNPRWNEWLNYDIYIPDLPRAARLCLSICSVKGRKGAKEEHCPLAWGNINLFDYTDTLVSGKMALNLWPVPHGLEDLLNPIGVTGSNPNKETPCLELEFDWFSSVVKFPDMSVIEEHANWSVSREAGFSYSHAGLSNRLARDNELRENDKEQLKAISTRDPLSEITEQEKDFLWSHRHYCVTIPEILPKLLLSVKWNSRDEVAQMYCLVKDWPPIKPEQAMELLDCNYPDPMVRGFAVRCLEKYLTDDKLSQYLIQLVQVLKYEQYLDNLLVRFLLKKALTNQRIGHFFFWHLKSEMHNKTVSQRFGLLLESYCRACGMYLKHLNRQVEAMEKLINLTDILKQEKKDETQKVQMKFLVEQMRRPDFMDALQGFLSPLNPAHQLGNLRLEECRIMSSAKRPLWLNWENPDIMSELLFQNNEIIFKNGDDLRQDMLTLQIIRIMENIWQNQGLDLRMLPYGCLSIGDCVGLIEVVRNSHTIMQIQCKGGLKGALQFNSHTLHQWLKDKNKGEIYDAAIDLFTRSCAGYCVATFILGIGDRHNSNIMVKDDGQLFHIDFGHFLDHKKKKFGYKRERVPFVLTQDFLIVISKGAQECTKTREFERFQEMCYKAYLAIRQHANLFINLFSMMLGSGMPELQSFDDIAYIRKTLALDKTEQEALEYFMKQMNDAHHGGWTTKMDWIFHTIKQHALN
T5 sequence (Q9BUB5 whole entry): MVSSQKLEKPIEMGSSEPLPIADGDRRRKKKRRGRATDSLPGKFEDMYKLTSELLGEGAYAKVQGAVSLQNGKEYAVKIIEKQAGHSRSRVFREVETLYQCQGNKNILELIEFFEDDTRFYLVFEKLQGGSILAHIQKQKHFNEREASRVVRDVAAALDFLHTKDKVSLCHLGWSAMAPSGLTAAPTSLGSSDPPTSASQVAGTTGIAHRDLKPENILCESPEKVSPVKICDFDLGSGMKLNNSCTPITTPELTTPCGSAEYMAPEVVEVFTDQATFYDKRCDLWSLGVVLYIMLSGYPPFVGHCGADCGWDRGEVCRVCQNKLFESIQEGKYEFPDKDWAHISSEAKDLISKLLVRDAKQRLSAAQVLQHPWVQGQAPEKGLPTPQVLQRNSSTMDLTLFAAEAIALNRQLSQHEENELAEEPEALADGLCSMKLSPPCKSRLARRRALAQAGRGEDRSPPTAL

Compound | inhibition of BRAF (BRAF) | inhibition of CDK11 (CDK11) | inhibition of DCAMKL1 (DCAMKL1) | inhibition of ERBB2 (ERBB2) | inhibition of KIT (KIT) | inhibition of MKNK1 (MKNK1) | inhibition of p38-alpha (p38-alpha) | inhibition of p38-beta (p38-beta) | inhibition of PDGFRA (PDGFRA) | inhibition of PDGFRB (PDGFRB) | inhibition of PIK3CA (PIK3CA) | inhibition of PLK4 (PLK4) | inhibition of RAF1 (RAF1) | inhibition of RIOK2 (RIOK2) | inhibition of TYK2 (catalytic) (TYK2 (catalytic))
Cc1ccc(NC(=O)c2[nH]c(C(F)(F)F)nc2-c2ccc(F)cc2)cc1Nc1ccc2ncn(C)c(=O)c2c1 [KIN-035] | XXXX (XXXX > 90% @ 1 μM) | XX (XX > 50% @ 1 μM) | X (X > 25% @ 1 μM) | X (X > 25% @ 1 μM) | XXXX (XXXX > 90% @ 1 μM) | XX (XX > 50% @ 1 μM) | XXXX (XXXX > 90% @ 1 μM) | X (X > 25% @ 1 μM) | XX (XX > 50% @ 1 μM) | XXX (XXX > 75% @ 1 μM) | X (X > 25% @ 1 μM) | X (X > 25% @ 1 μM) | XXXX (XXXX > 90% @ 1 μM) | X (X > 25% @ 1 μM) | X (X > 25% @ 1 μM)
Cc1ccc(-c2nc(C(F)(F)F)[nH]c2C(=O)Nc2ccc(C)c(Nc3ccc4ncn(C)c(=O)c4c3)c2)cc1F [KIN-038] | XXX (XXX > 75% @ 1 μM) | X (X > 25% @ 1 μM) | X (X > 25% @ 1 μM) | X (X > 25% @ 1 μM) | XXXX (XXXX > 90% @ 1 μM) | X (X > 25% @ 1 μM) | XX (XX > 50% @ 1 μM) | X (X > 25% @ 1 μM) | XX (XX > 50% @ 1 μM) | XX (XX > 50% @ 1 μM) | X (X > 25% @ 1 μM) | X (X > 25% @ 1 μM) | XXXX (XXXX > 90% @ 1 μM) | X (X > 25% @ 1 μM) | X (X > 25% @ 1 μM)
